Experimental data as given in ChEMBL document CHEMBL4007468, “Curcumolide reduces diabetic retinal vascular leukostasis and leakage partly via inhibition of the p38MAPK/NF-κ B signaling” (Bioorg Med Chem Lett, 2017).
Active and inactive are the calls of the source. No cut-off for these calls is given here.

Experiments:
[1] = system: Rattus norvegicus; test: Inhibition of retinal leukostasis in STZ-induced Wistar rat diabetic retinopathy model assessed as adherent leukocyte count per retina at 50 ug/eye administered intravitreally measured after 3 days by FITC-ConA staining based fluorescence microscopic method (reference value: 52 +/- 10); format: functional
[2] = system: Rattus norvegicus; test: Toxicity in STZ-induced Wistar rat diabetic retinopathy model assessed as inflammatory cells accumulation in retina at 75 ug/eye administered intravitreally measured after 3 days by hematoxylin and eosin staining based assay; conditions: in vivo, topical_or_ocular, 72 h
[3] = molecular target: Transcription factor p65 (Homo sapiens) (UniProt Q04206); test: Inhibition of TNFalpha-stimulated NF-kB p65 phosphorylation at Ser-276 residue in HUVEC up to 20 uM preincubated with cells followed by TNFalpha stimulation measured after 30 mins by Western blot method
[4] = system: HUVEC; test: Cytotoxicity against HUVEC assessed as reduction in cell viability up to 20 uM after 24 hrs by MTT assay; format: cell-based; conditions: human
[5] = system: Rattus norvegicus; test: Toxicity in STZ-induced Wistar rat diabetic retinopathy model assessed as inflammatory cells accumulation in choroid tissues at 75 ug/eye administered intravitreally measured after 3 days by hematoxylin and eosin staining based assay; conditions: in vivo, topical_or_ocular, 72 h
[6] = molecular target: MAP kinase p38 (Homo sapiens) (UniProt O15264+Q15759+Q16539+P53778); test: Inhibition of TNFalpha-stimulated MAPK p38 phosphorylation in HUVEC preincubated with cells followed by TNFalpha stimulation measured after 30 mins by Western blot method
[7] = molecular target: T1, Inhibitor of nuclear factor kappa-B kinase subunit beta (Homo sapiens) (UniProt O14920); test: Inhibition of IKKbeta in HUVEC assessed as reduction in TNFalpha-stimulated IkBalpha phosphorylation at Ser-32 residue preincubated with cells followed by TNFalpha stimulation measured after 30 mins by Western blot method
T1 sequence (whole entry): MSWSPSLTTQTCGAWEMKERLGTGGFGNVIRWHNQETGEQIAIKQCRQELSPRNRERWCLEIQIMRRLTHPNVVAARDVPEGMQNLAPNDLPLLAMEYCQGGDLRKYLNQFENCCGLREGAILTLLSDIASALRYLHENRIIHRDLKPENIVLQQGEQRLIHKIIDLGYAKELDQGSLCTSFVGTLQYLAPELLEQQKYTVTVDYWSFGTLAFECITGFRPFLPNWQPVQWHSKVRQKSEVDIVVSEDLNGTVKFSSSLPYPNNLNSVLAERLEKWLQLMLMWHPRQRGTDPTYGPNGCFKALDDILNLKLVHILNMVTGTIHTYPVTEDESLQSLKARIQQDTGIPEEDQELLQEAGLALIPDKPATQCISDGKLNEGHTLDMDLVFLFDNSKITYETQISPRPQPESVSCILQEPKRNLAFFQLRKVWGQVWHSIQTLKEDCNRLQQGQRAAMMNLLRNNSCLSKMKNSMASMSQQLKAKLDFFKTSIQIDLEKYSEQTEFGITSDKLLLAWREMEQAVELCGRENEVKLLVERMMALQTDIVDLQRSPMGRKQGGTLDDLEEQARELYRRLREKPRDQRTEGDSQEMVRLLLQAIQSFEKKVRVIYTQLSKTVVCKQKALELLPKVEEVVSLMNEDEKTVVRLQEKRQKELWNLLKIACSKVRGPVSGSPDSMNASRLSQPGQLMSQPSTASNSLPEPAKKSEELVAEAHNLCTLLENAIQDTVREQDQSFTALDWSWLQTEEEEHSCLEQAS

[8] = system: Rattus norvegicus; test: Downregulation of TNFalpha level in STZ-induced Wistar rat diabetic retinopathy model at 50 ug/eye administered intravitreally measured after 3 days by Western blot method; format: functional
[9] = molecular target: c-Jun N-terminal kinase, JNK (Homo sapiens) (UniProt P45983+P53779+P45984); test: Inhibition of TNFalpha-stimulated JNK phosphorylation in HUVEC up to 20 uM preincubated with cells followed by TNFalpha stimulation measured after 30 mins by Western blot method
[10] = system: Rattus norvegicus; test: Inhibition of retinal vascular leakage in STZ-induced Wistar rat diabetic retinopathy model assessed as Evans blue albumin level in retina at 50 ug/eye administered intravitreally measured after 3 days (reference value: 82.94 +/- 11.2 ug/g); format: functional
[11] = system: Rattus norvegicus; test: Toxicity in STZ-induced Wistar rat diabetic retinopathy model assessed as TUNEL positive cells in retinal layers at 75 ug/eye administered intravitreally measured after 3 days by fluorescence microscopic method; conditions: in vivo, topical_or_ocular, 72 h
[12] = system: Rattus norvegicus; test: Downregulation of ICAM-1 level in STZ-induced Wistar rat diabetic retinopathy model at 50 ug/eye administered intravitreally measured after 3 days by Western blot method; format: functional
[13] = species: Homo sapiens; test: Inhibition of TNFalpha-stimulated NF-kB in HUVEC assessed as reduction in TNFalpha mRNA level up to 20 uM preincubated with cells followed by TNFalpha stimulation measured after 30 mins by RT-PCR method
[14] = molecular target: Transcription factor p65 (Homo sapiens) (UniProt Q04206); test: Inhibition of TNFalpha-stimulated NF-kB p65 phosphorylation at Ser-536 residue in HUVEC up to 20 uM preincubated with cells followed by TNFalpha stimulation measured after 30 mins by Western blot method
[15] = molecular target: Transcription factor p65 (Homo sapiens) (UniProt Q04206); test: Inhibition of TNFalpha-stimulated NF-kB p65 nuclear translocation in HUVEC up to 20 uM preincubated with cells followed by TNFalpha stimulation measured after 30 mins by Western blot method
[16] = system: Rattus norvegicus; test: Toxicity in STZ-induced Wistar rat diabetic retinopathy model assessed as effect on retina thickness at 75 ug/eye administered intravitreally measured after 3 days by hematoxylin and eosin staining based assay; conditions: in vivo, topical_or_ocular, 72 h
[17] = system: Rattus norvegicus; test: Inhibition of retinal vascular leakage in STZ-induced Wistar rat diabetic retinopathy model assessed as reduction in FITC-dextran leakage at 50 ug/eye administered intravitreally measured after 3 days by fluorescence microscopic method; format: functional
[18] = system: Rattus norvegicus; test: Toxicity in STZ-induced Wistar rat diabetic retinopathy model assessed as inflammatory cells accumulation in vitreous at 75 ug/eye administered intravitreally measured after 3 days by hematoxylin and eosin staining based assay; conditions: in vivo, topical_or_ocular, 72 h
[19] = molecular target: T1, Inhibitor of nuclear factor kappa-B kinase subunit beta (Homo sapiens); test: Inhibition of TNFalpha-stimulated IKKbeta phosphorylation at Ser-177 residue in HUVEC preincubated with cells followed by TNFalpha stimulation measured after 30 mins by Western blot method
[20] = species: Homo sapiens; test: Inhibition of TNFalpha-stimulated NF-kB in HUVEC assessed as reduction in ICAM1 mRNA level up to 20 uM preincubated with cells followed by TNFalpha stimulation measured after 30 mins by RT-PCR method

Sequence of Transcription factor p65 (Homo sapiens) (Q04206 whole entry): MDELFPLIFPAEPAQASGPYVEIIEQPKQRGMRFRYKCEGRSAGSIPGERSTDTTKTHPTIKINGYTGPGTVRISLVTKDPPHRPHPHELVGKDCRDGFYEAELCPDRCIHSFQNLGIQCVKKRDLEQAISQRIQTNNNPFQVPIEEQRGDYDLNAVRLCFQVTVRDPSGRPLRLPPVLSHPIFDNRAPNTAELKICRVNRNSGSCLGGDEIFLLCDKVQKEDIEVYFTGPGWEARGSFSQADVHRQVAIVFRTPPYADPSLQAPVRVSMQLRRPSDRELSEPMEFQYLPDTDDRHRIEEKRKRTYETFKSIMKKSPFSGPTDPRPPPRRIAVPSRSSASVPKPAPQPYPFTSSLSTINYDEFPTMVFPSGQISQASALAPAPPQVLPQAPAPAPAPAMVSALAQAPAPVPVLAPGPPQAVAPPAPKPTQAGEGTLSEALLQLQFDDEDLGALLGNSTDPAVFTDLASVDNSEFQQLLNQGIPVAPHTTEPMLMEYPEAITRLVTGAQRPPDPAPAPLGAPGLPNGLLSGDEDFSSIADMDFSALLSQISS

| inhibition [3] | inhibition [6] | inhibition [7] | inhibition [9] | inhibition [13] | inhibition [14] | inhibition [15] | inhibition [19] | inhibition [20] | Compound | Activity [1] | Activity [2] | Activity [4] | Activity [5] | Activity [8] | Activity [10] [µg/g] | Activity [11] | Activity [12] | Activity [16] | inhibition [17] | Activity [18] |
| --- | --- | --- | --- | --- | --- | --- | --- | --- | --- | --- | --- | --- | --- | --- | --- | --- | --- | --- | --- | --- |
| Active | Dose-dependent effect | Dose-dependent effect | inactive | Active | Active | Active | Dose-dependent effect | Active | CC1=C[C@]2(C(C)(C)O)C[C@]3(OC2=O)[C@@H](C)CC[C@@H]13 | 25 | Non-Toxic | Non-Toxic | Non-Toxic | Active | 43.53 | Non-Toxic | Active | Non-Toxic | Active | Non-Toxic |
| – | – | – | – | – | – | – | – | – | CC1(C)O[C@@H]2C[C@H]3[C@@H]4CCC5=CC(=O)C=C[C@]5(C)[C@@]4(F)[C@@H](O)C[C@]3(C)[C@]2(C(=O)CO)O1 [TRIAMCINOLONE ACETONIDE] | 19 | – | – | – | Active | 36.33 | – | Active | – | Active | – |
